In article PMC7948455, “Novel drug discovery platform for spinocerebellar ataxia, using fluorescence technology targeting β-III-spectrin” (The Journal of Biological Chemistry, 2020):
Values joined by “and” are separate entries in the source; they are usually repeats but may differ in a detail not shown here. Equal entries are not always repeated.

Columns and labels:
actin filaments = conditions: read-out: Affinity for actin; cited from earlier work
[1] = target: T1, binding of the mutant β-III-spectrin L253P ABD to F-actin (Homo sapiens, UniProt O15020, L253P); experiment: Primary live-cell FRET assay (GFP-ABD-L253P + Lifeact-mCherry) in HEK293-6E cells; assay type: cell-based; conditions: for Effect of Hit compound on primary FRET: LOPAC Hits (10 μM screen, 4SD threshold, 120 min) and dose response
T1 construct: the β-III-spectrin (human) ABD residues 1 to 284; expressed in transfected cells; host or cells: HEK293-6E (pTT5 vector, transient transfection)
T1 sequence (O15020 1-284 L253P): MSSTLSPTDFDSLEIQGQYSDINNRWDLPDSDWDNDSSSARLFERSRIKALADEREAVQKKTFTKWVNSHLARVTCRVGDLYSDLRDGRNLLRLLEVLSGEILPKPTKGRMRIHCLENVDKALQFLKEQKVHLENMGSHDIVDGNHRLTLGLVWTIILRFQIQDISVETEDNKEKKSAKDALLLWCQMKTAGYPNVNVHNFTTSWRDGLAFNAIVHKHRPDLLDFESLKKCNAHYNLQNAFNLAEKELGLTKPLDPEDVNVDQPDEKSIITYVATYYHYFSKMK
Method: To develop a biosensor that monitors the binding of mutant L253P β-III-spectrin to actin filaments in live cells, a FRET approach was tested. A FRET donor construct consisting of green fluorescent protein fused to the N terminus of the mutant ABD (GFP-ABD-L253P) was coexpressed in HEK293-EBNA1-6E (HEK293-6E) cells with a FRET acceptor construct consisting of the actin-binding peptide, Lifeact, fused to the N terminus of red fluorescent protein, mCherry (Lifeact-mCherry). Lifeact is a 17 amino acid peptide derived from the yeast actin-binding protein, ABP140 ([15]). […] The cryo-EM structures of ABD L253P and Lifeact on actin indicate that the binding sites overlap on actin units. With ABD L253P and Lifeact bound on neighboring actin units, we predicted an average distance of ∼80 Å between GFP and mCherry (Fig. 1). With a known Förster distance R0 of 52.4 Å ([17]), this corresponds to FRET value of 0.07, a sufficient signal for a biosensor platform. To design a system most compatible for large production and eventual screening of 50,000+ compound libraries, we used HEK293-6E cells, a suspension cell line that yields greater levels (>threefold) of recombinant protein expression ([18], [19]).
With a constant amount of GFP-ABD-L253P expressed, increased Lifeact-mCherry expression increases FRET with an exponential plateau to 0.12 (Fig. 2A). To measure the nonspecific component of our FRET readout, we concurrently tested expression of mCherry in place of Lifeact-mCherry. For comparison, the Lifeact-mCherry and mCherry fluorescence intensity values (normalized to 1:1 GFP-ABD:Lifeact-mCherry sample) are plotted on the X-axis for samples transfected with different donor-to-acceptor DNA ratios. […] With the trade-off between high FRET and minimal nonspecific FRET, the donor:acceptor ratio 1:2 was chosen for the experiments that followed (Fig. 2A). […] Of note, we also tested the biosensor using WT-ABD, which yielded substantially lower FRET (Fig. S1), consistent with the 1000-fold decrease in affinity of WT-ABD for actin ([10]). We proceeded to test the compatibility of the GFP-ABD-L253P and Lifeact-mCherry assay for primary compound screening and the GFP-ABD-L253P and mCherry assay as a potential high-throughput counter screen.
To test the performance of the assay in HTS, the 1280 LOPAC compounds, together with 256 DMSO controls, were dispensed in 5 nl volumes into individual wells of 1536-well microplates and stored at −20 °C until use. To test the reproducibility of replicate screens on the same day, a single batch of HEK293 cells was transfected with GFP-ABD-L253P and Lifeact-mCherry. In addition, control cells were transfected with only GFP-ABD-L253P, to determine compound effect on donor-only lifetime (τD). To test reproducibility of the screens across different days, identical transfections were performed on another batch of HEK293-6E cells on a second day. Following plate thaw, 5 μl of assay cells were loaded in each well via a multidrop liquid dispenser, and a time course of compound effects (at 20, 120, and 180 min post load) on fluorescence lifetime was acquired using a fluorescence lifetime plate reader (FLT-PR). This technology has been advanced to high-density 1536-well plates in recent years for successful HTS using a range of protein biosensors including sarcoplasmic reticulum Ca-ATPase ([24], [25], [26], [27]), ryanodine receptor ([23], [28]), actin ([20]), tumor necrosis factor receptor 1 ([29], [30]), and tau ([31]).
At 2 × 10^6 cells/ml, HEK293-6E cells were transfected with GFP-ABD-L253P or GFP-ABD-WT (2.4 μg), Lifeact-mCherry (2.4–16.8 μg), mCherry (1.2–16.8 μg), and/or pTT5 (0.8–17.6 μg), as indicated, using the 293fectin protocol (Thermo Fisher Scientific) with 20 μg total DNA. Cells were transfected with either GFP-ABD-L253P or –WT, but coexpression of the WT and mutant isoform was not explored in this study. The cells were harvested 24 h later by centrifugation at 100g for 5 min and then washed twice with PBS. […]

ABD L253P = target: T2, ABD L253P (Homo sapiens, UniProt O15020, L253P); experiment: Sedimentation of ABD L253P without actin (aggregation); conditions: 10 μM Hit compound, n = 4
T2 construct: the β-III-spectrin (human) ABD residues 1 to 284; His-SUMO (cleaved yes); made in house; host or cells: E. coli BL21(DE3), vector pE-SUMOpro
T2 sequence (O15020 1-284 L253P): as above
Method: In addition to a reduction in cell viability, the primary and counter screen may be sensitive to compounds that promote ABD-L253P protein aggregation. […] Our assay measuring ABD-L253P cosedimentation with actin is not sensitive to ABD aggregation, as it is designed to work under conditions where ∼90% ABD-L253P cosediments with actin. Nevertheless, we repeated these measurements in the absence of actin.
(§1) F-actin and ABD binding assays were performed as previously described ([10]). In brief, binding assays used 1 μM ABD protein, 1 μM F-actin, and 1 to 50 μM compound (as indicated) or DMSO control for a total reaction volume of 60 μl in F-buffer containing 10 mM Tris, pH 7.5, 150 mM NaCl, 0.5 mM ATP, 2 mM MgCl2, and 1 mM DTT. Following 30 min incubation at room temperature (21 °C). F-actin was pelleted using centrifugation at 100,000g at 25 °C for 30 min. Unbound ABD in the supernatant was measured following SDS-PAGE and Coomassie blue staining in accord ([10]). In addition, control cosedimentations assays that lacked actin were performed to test if compounds cause ABD aggregation. F-actin and Lifeact-mCherry binding assays were undertaken with 2 μM Lifeact-mCherry, 30 μM F-actin, and 1 to 50 μM compound (as indicated) or DMSO control for a total reaction volume of 80 μl in F-buffer. For a no-actin binding control, an assay sample with no F-actin was also set up. Binding reactions were allowed to reach equilibrium at room temperature (21 °C) for 30 min, and then F-actin was pelleted by centrifugation at 100,000g at 25 °C for 30 min. The amount of unbound Lifeact-mCherry was sampled by loading 7 μl of spin supernatant on a low-volume black bottom 384-well plate (Greiner). Amount of mCherry was determined by acquiring fluorescence spectrum peak intensity at ∼600 nm using a spectral unmixing plate reader (Fluorescence Innovations, Inc) equipped with a 532 nm laser (Laserglow Technologies, Ontario, Canada) for excitation, 532 nm long-pass filter for emission, and PMT for emission detection. The fraction of Lifeact-mCherry bound to F-actin was determined by subtracting from one the fraction of supernatant fluorescence intensity relative to the no-actin control sample:(3) Lifeactboundfraction=1−Fcompound/DMSO/FNo−actin where Fcontrol/DMSO is the peak mCherry fluorescence of assay samples containing compound or DMSO control, and Fno-actin is the peak mCherry fluorescence of assay samples that contained no F-actin.

[2] = target: T3, Lifeact-mCherry binding to actin (Oryctolagus cuniculus, UniProt P68135); experiment: F-actin and Lifeact-mCherry cosedimentation assay; conditions: for Effect on actin-Lifeact cosedimentation: 10 μM Hit compound
T3 construct: from tissue; host or cells: actin: rabbit psoas muscle; Lifeact-mCherry: made in house in E. coli (pE-SUMOpro)
Method: (§2) Actin was purified from acetone powder derived from the psoas muscle of New Zealand white rabbit (Oryctolagus cuniculus) ([46]). Filamentous (F)-actin was stored for up to 3 days on ice before use in binding assays. Within an hour of the binding assay, the F-actin was clarified at 100,000g at 4 °C for 10 min prior to setting up binding assays. The L253P β-III-spectrin ABD was expressed in E. coli BL21(DE3) (Novagen). The ABD was purified and the His-SUMO tag proteolytically removed, as previously described ([14]), except size-exclusion chromatography was not performed due to the high purity of the ABD protein. Lifeact-mCherry protein was similarly prepared. A Bradford assay was performed to determine clarified F-actin and ABD protein concentrations.
as §1

HEK293-6E cells = experiment: Trypan blue cell viability assay; assay type: cell-based
Method: HEK293-6E cell viability was measured using trypan blue (0.03%) staining and a Countess Automated Cell counter (Invitrogen). Nontransfected HEK293-6E cells were spun at 100g for 5 min at 21 °C and resuspended in 10 ml of PBS. The centrifugation and resuspension were repeated twice more. Final cell concentration was 1 × 10^6 cells/ml. Cells were incubated with 2% DMSO or 3 to 50 μM compound (as indicated) for 3 h at room temperature (21 °C). After addition of 100 μl of 0.06% trypan blue solution in PBS, 10 μl was loaded on a slide and injected into the cell counter, and cell viability was measured.

mammalian cells = conditions: cited from earlier work
[3] = target: T4, ABD-L253P binding to actin (Homo sapiens, UniProt O15020, L253P); experiment: F-actin and ABD cosedimentation assay; conditions: 3 μM swinholide A, 50 μM tegaserod; n = 4
T4 construct: the β-III-spectrin (human) ABD residues 1 to 284; His-SUMO (cleaved yes); made in house; host or cells: E. coli BL21(DE3), vector pE-SUMOpro; actin from rabbit psoas muscle tissue
T4 sequence (O15020 1-284 L253P): as above
Method: as §2, §1

[4] = 10 μM Hit compound, 3 h incubation

Question: With “GFP-ABD-L253P: green fluorescent protein fused to N terminus of the mutant β-III-spectrin ABD (L253P); FRET donor” as the compound, how does the Kd (actin filaments) read?
Answer: 75 nM

Question: With `CCCc1c(-c2ccc(O)cc2)nn(-c2ccc(O)cc2)c1-c1ccc(O)cc1` [PPT] as the compound, how does the “Effect of Hit compound on primary FRET” value [1] read?
Answer: decrease FRET

Question: And the “Effect on ABD pelleting without actin (aggregation)” value (ABD L253P)?
Answer: trend toward increasing

Question: Which results are given for `Clc1ccc(C(c2ccc(Cl)cc2)n2cc[n+](CC(OCc3ccc(Cl)cc3Cl)c3ccc(Cl)cc3Cl)c2)cc1` (centres unmarked) [calmidazolium]?
Answer: Effect of Hit compound on primary FRET [1]: decrease FRET; Effect on actin-Lifeact cosedimentation [2]: decreased; Effect on HEK293-6E cell viability (HEK293-6E cells; [4]): dramatically reduced; Effect on cell viability in mammalian cells (mammalian cells): reduce cell viability

Question: Which “Effect of Hit compound on primary FRET” value [1] does the source give for `Cc1cc2c(C(C)C)c(O)c(O)c(C=O)c2c(O)c1-c1c(C)cc2c(C(C)C)c(O)c(O)c(C=O)c2c1O` [gossypol] here?
Answer: decrease FRET

Question: And the “Effect on ABD pelleting without actin (aggregation)” value (ABD L253P)?
Answer: promote aggregation

Question: And the “Reduction of cell viability” value (mammalian cells; 10 μM ref 36, 37, 38)?
Answer: < 10%

Question: With `[H]/N=C(/NCCCCC)N/N=C/c1c[nH]c2ccc(OC)cc12` [tegaserod] as the compound, how does the “Reduction of Total FRET in primary FRET assay” value ([1]; 50 μM tegaserod, relative to DMSO) read?
Answer: > 50% and 83%

Question: And the “Effect on ABD-L253P cosedimentation with actin” value [3]?
Answer: no significant effect

Question: And the “Effect on Lifeact-mCherry cosedimentation with actin” value ([2]; 3 μM swinholide A, 50 μM tegaserod)?
Answer: did not alter

Question: And the “Effect on HEK293-6E cell viability” value (HEK293-6E cells; 3 μM swinholide A, 50 μM tegaserod, 3 h)?
Answer: greatly diminished

Question: And the “Decrease in cell viability” value (HEK293-6E cells; 50 μM tegaserod, 3 h)?
Answer: 92%

Question: For `CCCCCCCCCCCCCCCC(=O)OC(CC(=O)[O-])C[N+](C)(C)C` (racemic) [palmitoyl-DL-carnitine], which “Effect of Hit compound on primary FRET” value [1] is on record?
Answer: decrease FRET

Question: What about the “Effect on actin-Lifeact cosedimentation” value [2] of the same compound?
Answer: decreased

Question: And the “Effect on HEK293-6E cell viability” value (HEK293-6E cells; [4])?
Answer: dramatically reduced

Question: What about the “Effect on cell viability in mammalian cells” value (mammalian cells) of the same compound?
Answer: reduce cell viability

Question: Which “Effect of Hit compound on primary FRET” value [1] does the source give for `CC(C)(Sc1ccc(CCN(CCCCC2CCCCC2)C(=O)NC2CCCCC2)cc1)C(=O)O` [GW7647] here?
Answer: decrease FRET

Question: What about the “Effect on actin-Lifeact cosedimentation” value [2] of the same compound?
Answer: decreased

Question: What about the “Effect on HEK293-6E cell viability” value (HEK293-6E cells; [4]) of the same compound?
Answer: dramatically reduced

Question: And the “Effect on ABD pelleting without actin (aggregation)” value (ABD L253P)?
Answer: promote aggregation
